Experimental data as given in ChEMBL document CHEMBL1154916, “Insight into binding of phosphodiesterase-9A selective inhibitors by crystal structures and mutagenesis” (J Med Chem, 2010).

Key:
[1] = Inhibition of PDE9
[2] = target: High affinity cGMP-specific 3',5'-cyclic phosphodiesterase 9A (Homo sapiens, UniProt O76083); test: Inhibition of human PDE9A expressed in Escherichia coli BL21 by liquid scintillation counting
Sequence of High affinity cGMP-specific 3',5'-cyclic phosphodiesterase 9A (O76083 whole entry): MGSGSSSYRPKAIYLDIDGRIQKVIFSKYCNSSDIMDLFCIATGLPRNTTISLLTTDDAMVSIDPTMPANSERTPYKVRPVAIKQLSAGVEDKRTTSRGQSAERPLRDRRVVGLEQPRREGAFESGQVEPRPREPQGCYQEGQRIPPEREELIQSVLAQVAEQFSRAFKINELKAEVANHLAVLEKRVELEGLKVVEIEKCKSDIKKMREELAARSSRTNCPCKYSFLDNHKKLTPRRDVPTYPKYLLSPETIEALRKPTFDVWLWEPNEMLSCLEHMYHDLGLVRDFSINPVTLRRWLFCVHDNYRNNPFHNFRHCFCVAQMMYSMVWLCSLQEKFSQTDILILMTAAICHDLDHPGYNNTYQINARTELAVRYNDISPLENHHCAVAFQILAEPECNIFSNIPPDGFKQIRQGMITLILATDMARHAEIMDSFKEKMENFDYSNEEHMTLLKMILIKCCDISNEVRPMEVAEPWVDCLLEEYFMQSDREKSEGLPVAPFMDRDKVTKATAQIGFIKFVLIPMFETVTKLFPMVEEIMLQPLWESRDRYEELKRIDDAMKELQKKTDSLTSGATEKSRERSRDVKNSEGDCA

SMILES | IC50 [1] | IC50 [2]
C[C@H](Cc1nc2c(cnn2-c2ccccc2Cl)c(=O)[nH]1)C(F)(F)F | 55 nM | –
CC(C)Cn1c(=O)n(C)c(=O)c2[nH]cnc21 [ISOBUTYLMETHYLXANTHINE] | – | > 200000 nM
